Like-named read-outs stand apart in the source and are kept apart here.
Columns and labels:
MCF‐7 cell lines = experiment: MTT assay, cytotoxicity on MCF-7 cells; format: cell-based, human; conditions: for IC50: Homo sapiens, MTT
Protocol: The cytotoxic effects of PTB derivatives on MCF‐7 breast cancer cells were evaluated using the MTT assay at various concentrations (100 nM, 1 μM, 10 μM, 50 μM, and 100 μM).
(§1) The human dermal fibroblast (HDFa) and human breast cancer cells (MCF‐7) were obtained from the American Type Culture Collection (ATCC; Manassas, VA, USA). Cells were cultured in RPMI medium (MCF‐7) and DMEM medium (HDFa) was supplemented with 10% FBS, 1% penicillin–streptomycin, 1% amphotericin, and 2.5% L‐glutamine at 37°C in a 5% CO2 incubator.
MTT Method. The MTT method is used to detect and quantify living organisms cultured with the method colorimetrically. This method relies on intact mitochondria cleaving the tetrazolium ring of the MTT dye. The MTT substance is absorbed and reduced to a colorful, water‐insoluble formazan by a mitochondria‐dependent reaction. Cell viability is measured based on the MTT reduction property, and the density of dye obtained from MTT analysis indicates the number of viable cells. In this study, cell viability was assessed using the MTT (0.5 mg/mL) solution that was added to each well. […] After adding properties to cultures, they were kept at 37°C for 24 h and overnight. Then, at 48 and 72 h after applying the molecules, 10 μL of MTT was added to each well and incubated under similar conditions for 4 h. Absorbance spectrophotometry was performed at a wavelength of 570 nm using the IC50 = [(control absorbents‐sample absorbents)/control absorbents] × 100 calculation method (Khorsandi et al. [2017]).

HDFa cell lines = experiment: Cytotoxicity on healthy dermal fibroblasts (MTT / xCELLigence real-time cell analysis); format: cell-based; conditions: Homo sapiens
Protocol: The cytotoxicity of these derivatives was also assessed in dermal fibroblast cells using xCELLigence analysis as detailed in the Supporting Information.
as §1
xCELLigence Real‐Time Cell Analysis. The xCELLigence system (Real‐Time Cell Analyzer (RTCA) Dual Plate (DP) (Roche Diagnostics GmbH, Penzberg)) was used for real‐time monitoring of cell viability without the need for labeling. A total of 1 × 10^4 HDFa cells were seeded into each well of the E‐plate, and the cell proliferation curve was monitored for 24 h. […] The Cell Index (CI) value was automatically measured every hour for each well using RTCA Software (version 1.2.1) (Yetkin et al. [2021]; Yıldırım et al. [2022]).

MCF‐7 cells = experiment: Apoptosis/necrosis by flow cytometry, Annexin V/propidium iodide, MCF-7; format: cell-based, human; conditions: MCF-7, 48 h, p < 0.05
Protocol: Flow cytometry analysis was performed to evaluate the percentages of apoptosis for these compounds compared to tamoxifen. MCF‐7 cell suspensions treated with each compound for 48 h were stained using an apoptosis detection kit and subsequently analyzed using flow cytometry.
The assessment of apoptosis through flow cytometry is a valuable method for obtaining quantitative results to determine the levels of apoptosis and necrosis in cells. In our study, the 48th‐hour apoptosis levels of three synthases with the lowest IC50 values (PTB derivatives B8, B14, and B18) were evaluated. To assess apoptosis levels, MCF‐7 cells and healthy fibroblast cells were incubated with these synthases for 48 h. After this incubation period, the cells were treated with Annexin‐V APC and PE propidium iodide (PI) dyes to examine apoptosis levels. Then, to examine the levels of apoptosis, the cells were incubated at a concentration of 2 × 10^5 cells/mL with 5 μL Annexin‐V APC and 10 μL PI dyes in 100 μL Binding buffer for 15 min at room temperature. Samples were then washed twice in PBS, and the BD FACS ARIA III flow cytometry device was used to determine the percentage of apoptotic cells. (Ayaz et al. [2022]).

[1] = MCF7, read-out: IC50 (μM) for MCF‐7 cell lines, 48 h
[2] = MCF7, 24 h, read-out: IC50 (μM) for MCF‐7 cell lines, 24 h
[3] = MCF7, 72 h, read-out: IC50 (μM) for MCF‐7 cell lines, 72 h
[4] = 24 h, values greater than 100 not calculated, read-out: IC50 (μM) for HDFa cell lines, 24 h
[5] = 72 h, values greater than 100 not calculated, read-out: IC50 (μM) for HDFa cell lines, 72 h
[6] = read-out: IC50 (μM) for HDFa cell lines, 48 h, values greater than 100 not calculated

Row | SMILES | IC50 (MCF‐7 cell lines; [1]) | IC50 (MCF‐7 cell lines; [2]) | IC50 (MCF‐7 cell lines; [3]) | IC50 (HDFa cell lines; [4]) | IC50 (HDFa cell lines; [5]) | IC50 (HDFa cell lines; [6]) | IC50 in MCF-7 compared to tamoxifen (fold lower) (MCF‐7 cell lines; MCF-7, MTT) | Secondary apoptosis vs control (MCF‐7 cells)
1 | c1ccc2oc(-c3ccc(-c4nc5ccccc5o4)[nH]3)nc2c1 [Compound B1, 2,5‐Bis(Benzo[d]Oxazol‐2‐Yl)‐1H‐Pyrrole] | 2.96 ± 1.02 µM | 3.89 ± 1.15 µM | 3.13 ± 1.12 µM | 89.4 ± 1.23 µM | ≥ 100 µM | 89.93 ± 0.43 µM | – | –
2 | COc1ccc2oc(-c3ccc(-c4nc5cc(OC)ccc5o4)[nH]3)nc2c1 [Compound B4, 2,5‐Bis(5‐Methoxybenzo[d]Oxazol‐2‐Yl)‐1H‐Pyrrole] | 4.19 ± 1.86 µM | 4.56 ± 1.56 µM | 3.11 ± 0.56 µM | 97.3 ± 1.34 µM | ≥ 100 µM | 99.23 ± 0.32 µM | – | –
3 | COc1ccc2oc(-c3ccc(-c4nc5ccc(C)cc5o4)[nH]3)nc2c1 [Compound B15, 5‐Methoxy‐2‐(5‐(6‐Methylbenzo[d]Oxazol‐2‐Yl)‐1H‐Pyrrol‐2‐Yl)benzo[d]Oxazole] | 8.09 ± 2.06 µM | 2.49 ± 1.64 µM | 2.53 ± 1.56 µM | ≥ 100 µM | ≥ 100 µM | ≥ 100 µM | – | –
4 | Cc1ccc2oc(-c3ccc(-c4nc5cc(C)ccc5o4)[nH]3)nc2c1 [Compound B2, 2,5‐Bis(5‐Methylbenzo[d]Oxazol‐2‐Yl)‐1H‐Pyrrole] | 4.5 ± 0.23 µM | 4.6 ± 2.2 µM | 2.06 ± 1.67 µM | 96.3 ± 1.03 µM | 99.3 ± 1.03 µM | 94.3 ± 1.56 µM | – | –
5 | Cc1ccc2oc(-c3ccc(-c4nc5ccccc5o4)[nH]3)nc2c1 [Compound B6, 2‐(5‐(Benzo[d]Oxazol‐2‐Yl)‐1H‐Pyrrol‐2‐Yl)‐5‐Methylbenzo[d]Oxazole] | 3.09 ± 1.23 µM | 2.81 ± 0.76 µM | 3.02 ± 0.89 µM | 98.5 ± 1.02 µM | 99.1 ± 1.73 µM | 99 ± 1.76 µM | – | –
6 | COc1ccc2oc(-c3ccc(-c4nc5cc(Cl)ccc5o4)[nH]3)nc2c1 [Compound B17, 5‐Chloro‐2‐(5‐(5‐Methoxybenzo[d]Oxazol‐2‐Yl)‐1H‐Pyrrol‐2‐Yl)benzo[d]Oxazole] | 3.44 ± 1.12 µM | 3.7 ± 1.12 µM | 3.03 ± 0.76 µM | 98.3 ± 1.57 µM | 99 ± 1 µM | 99 ± 1.96 µM | – | –
7 | COC(=O)c1ccc2nc(-c3ccc(-c4nc5ccccc5o4)[nH]3)oc2c1 [Compound B10, Methyl 2‐(5‐(Benzo[d]Oxazol‐2‐Yl)‐1H‐Pyrrol‐2‐Yl)benzo[d]Oxazole‐6‐Carboxylate] | 2.88 ± 0.45 µM | 3.66 ± 1.34 µM | 2.44 ± 2.11 µM | 97.2 ± 1.76 µM | 99.9 ± 1.65 µM | 99.3 ± 1.34 µM | – | –
8 | COc1ccc2oc(-c3ccc(-c4nc5ccccc5o4)[nH]3)nc2c1 [Compound B8, 2‐(5‐(Benzo[d]Oxazol‐2‐Yl)‐1H‐Pyrrol‐2‐Yl)‐5‐Methoxybenzo[d]Oxazole] | 1.89 ± 0.12 µM | 4.4 ± 0.79 µM | 3.09 ± 0.21 µM | ≥ 100 µM | ≥ 100 µM | ≥ 100 µM | approximately 8 fold | significantly elevated
9 | Clc1ccc2oc(-c3ccc(-c4nc5cc(Cl)ccc5o4)[nH]3)nc2c1 [Compound B5, 2,5‐Bis(5‐Chlorobenzo[d]Oxazol‐2‐Yl)‐1H‐Pyrrole] | 2.69 ± 2.01 µM | 3.73 ± 1.05 µM | 3.28 ± 1.32 µM | 95.3 ± 1.92 µM | ≥ 100 µM | 97.5 ± 2.93 µM | – | –
10 | Cc1ccc2oc(-c3ccc(-c4nc5ccc(C)cc5o4)[nH]3)nc2c1 [Compound B11, 6‐Methyl‐2‐(5‐(5‐Methylbenzo[d]Oxazol‐2‐Yl)‐1H‐Pyrrol‐2‐Yl)benzo[d]Oxazole] | 3.49 ± 0.68 µM | 4.55 ± 0.09 µM | 2.44 ± 1.19 µM | 95.3 ± 1.65 µM | 99.4 ± 1.23 µM | 97.4 ± 1.47 µM | – | –
11 | Cc1ccc2oc(-c3ccc(-c4nc5cc(Cl)ccc5o4)[nH]3)nc2c1 [Compound B13, 5‐Chloro‐2‐(5‐(5‐Methylbenzo[d]Oxazol‐2‐Yl)‐1H‐Pyrrol‐2‐Yl)benzo[d]Oxazole] | 3.6 ± 0.56 µM | 3.43 ± 1.56 µM | 3.28 ± 1.36 µM | ≥ 100 µM | ≥ 100 µM | ≥ 100 µM | – | –
12 | Clc1ccc2oc(-c3ccc(-c4nc5ccccc5o4)[nH]3)nc2c1 [Compound B9, 2‐(5‐(Benzo[d]Oxazol‐2‐Yl)‐1H‐Pyrrol‐2‐Yl)‐5‐Chlorobenzo[d]Oxazole] | 3.23 ± 0.63 µM | 3.84 ± 1.12 µM | 2.77 ± 1.23 µM | 95.4 ± 1.29 µM | 101 ± 1.38 µM | 97.5 ± 1.99 µM | – | –
13 | COC(=O)c1ccc2nc(-c3ccc(-c4nc5cc(Cl)ccc5o4)[nH]3)oc2c1 [Compound B20, Methyl 2‐(5‐(5‐Chlorobenzo[d]Oxazol‐2‐Yl)‐1H‐Pyrrol‐2‐Yl)benzo[d]Oxazole‐6‐Carboxylate] | 3.25 ± 0.97 µM | 2.97 ± 1.13 µM | 3.07 ± 2.96 µM | 95.4 ± 1.94 µM | ≥ 100 µM | 97.3 ± 1.43 µM | – | –
14 | COC(=O)c1ccc2nc(-c3ccc(-c4nc5ccc(C)cc5o4)[nH]3)oc2c1 [Compound B16, Methyl 2‐(5‐(6‐Methylbenzo[d]Oxazol‐2‐Yl)‐1H‐Pyrrol‐2‐Yl)benzo[d]Oxazole‐6‐Carboxylate] | 2.82 ± 2.14 µM | 3.03 ± 1.35 µM | 2.93 ± 1.02 µM | 95.3 ± 1.03 µM | 99.3 ± 1.07 µM | 97.3 ± 1.09 µM | – | –
15 | Cc1ccc2nc(-c3ccc(-c4nc5ccccc5o4)[nH]3)oc2c1 [Compound B7, 2‐(5‐(Benzo[d]Oxazol‐2‐Yl)‐1H‐Pyrrol‐2‐Yl)‐6‐Methylbenzo[d]Oxazole] | 4.68 ± 0.98 µM | 4.08 ± 1.23 µM | 2.53 ± 1.82 µM | 97.3 ± 1.06 µM | 100 ± 1.03 µM | 98.5 ± 2 µM | – | –
16 | COc1ccc2oc(-c3ccc(-c4nc5cc(C)ccc5o4)[nH]3)nc2c1 [Compound B12, 5‐Methoxy‐2‐(5‐(5‐Methylbenzo[d]Oxazol‐2‐Yl)‐1H‐Pyrrol‐2‐Yl)benzo[d]Oxazole] | 3.49 ± 0.46 µM | 3.88 ± 0.23 µM | 3.11 ± 0.87 µM | ≥ 100 µM | ≥ 100 µM | ≥ 100 µM | – | –
17 | Cc1ccc2nc(-c3ccc(-c4nc5cc(Cl)ccc5o4)[nH]3)oc2c1 [Compound B19, 5‐Chloro‐2‐(5‐(6‐Methylbenzo[d]Oxazol‐2‐Yl)‐1H‐Pyrrol‐2‐Yl)benzo[d]Oxazole] | 2.97 ± 1.12 µM | 2.83 ± 0.87 µM | 3.42 ± 1.12 µM | 97.3 ± 1.34 µM | 99.82 ± 0.89 µM | 97.3 ± 1.2 µM | – | –
18 | Cc1ccc2nc(-c3ccc(-c4nc5ccc(C)cc5o4)[nH]3)oc2c1 [Compound B3, 2,5‐Bis(6‐Methylbenzo[d]Oxazol‐2‐Yl)‐1H‐Pyrrole] | 4.38 ± 0.98 µM | 3.3 ± 1.96 µM | 3.53 ± 0.65 µM | ≥ 100 µM | ≥ 100 µM | ≥ 100 µM | – | –

From paper PMC11905336, “Pyrrole‐Tethered Bisbenzoxazole Derivatives: Apoptosis‐Inducing Agents Targeting Breast Cancer Cells” (Chemical Biology & Drug Design, 2025)
